{"source": "patent US20230416203A1", "about": "“POTENT AND SELECTIVE INHIBITORS OF THE CALCIUM-ACTIVATED POTASSIUM CHANNEL, KCA3.1, FOR USE AS PLATFORM THERAPEUTICS” (priority 2020, published 2023)", "assay": "Two-week non-GLP toxicology in mice (clinical signs, body weight, body weight gain, food consumption, hematology, clinical chemistry, organ weights, histopathology)", "key": {"[1]": {"conditions": "female mice, 50 mg/kg:BID oral, 2 weeks, mean"}, "[2]": {"conditions": "male mice, 25 mg/kg/BID oral, 2 weeks, mean"}, "[3]": {"conditions": "male mice, 50 mg/kg/BID oral, 2 weeks, mean"}, "[4]": {"conditions": "oral, twice daily, 25 and 50 mg/kg, 2 weeks, mice"}}, "experimental": "Each group contained 6 mice. The animals were analyzed throughout the study, and blood and tissues were analyzed at the end of the study."}
{"smiles": "COC(=O)C1=CNC=C(C(=O)OC)C1c1ccc(F)c(C(F)(F)F)c1", "note": "[Compound 103, Dimethyl 4-(4-fluoro-3-(trifluoromethyl)phenyl)-1,4-dihydropyridine-3,5-dicarboxylate]", "values": [{"measurement": "Body weight gain (%)", "setting": "female mice, 50 mg/kg/BID oral, treatment day 1 to 14, mean", "result": 5.87, "unit": "%"}, {"measurement": "Organ weights relative to body weight (%), Adrenals", "setting": "[1]", "result": 0.035, "unit": "%"}, {"measurement": "Organ weights relative to body weight (%), Brain", "setting": "[1]", "result": 2.175, "unit": "%"}, {"measurement": "Organ weights relative to body weight (%), Heart", "setting": "[1]", "result": 0.532, "unit": "%"}, {"measurement": "Organ weights relative to body weight (%), Kidneys", "setting": "[1]", "result": 1.375, "unit": "%"}, {"measurement": "Organ weights relative to body weight (%), Liver", "setting": "[1]", "result": 7.356, "unit": "%"}, {"measurement": "Organ weights relative to body weight (%), Ovaries", "setting": "[1]", "result": 0.066, "unit": "%"}, {"measurement": "Organ weights relative to body weight (%), Spleen", "setting": "[1]", "result": 0.490, "unit": "%"}, {"measurement": "Organ weights relative to body weight (%), Thymus", "setting": "[1]", "result": 0.220, "unit": "%"}, {"measurement": "Organ weights relative to body weight (%), U", "setting": "[1]", "result": 0.277, "unit": "%"}, {"measurement": "clinical chemistry assessment", "setting": "male and female mice, 25 and 50 mg/kg BID, 2 weeks", "result": "no significant toxicological change"}, {"measurement": "ALB", "setting": "[2]", "result": 2.66}, {"measurement": "ALP", "setting": "[2]", "result": 207.96}, {"measurement": "ALT", "setting": "[2]", "result": 42.36}, {"measurement": "AST", "setting": "[2]", "result": 79.38}, {"measurement": "BUN", "setting": "[2]", "result": 19.73}, {"measurement": "Basophils", "setting": "[2]", "result": 0.00}, {"measurement": "CREA", "setting": "[2]", "result": 0.14}, {"measurement": "Eosinophils", "setting": "[2]", "result": 0.67}, {"measurement": "GLU", "setting": "[2]", "result": 157.88, "unit": "mg/dL"}, {"measurement": "HCT", "setting": "[2]", "result": 31.43, "unit": "%"}, {"measurement": "HGB", "setting": "[2]", "result": 15.37, "unit": "g/dL"}, {"measurement": "LDLC", "setting": "[2]", "result": 10.02, "unit": "mg/dL"}, {"measurement": "Lymphocytes", "setting": "[2]", "result": 82.33}, {"measurement": "MCH", "setting": "[2]", "result": 23.27, "unit": "pg"}, {"measurement": "MCHC", "setting": "[2]", "result": 48.87, "unit": "g/dL"}, {"measurement": "MCV", "setting": "[2]", "result": 47.70, "unit": "fL"}, {"measurement": "Monosytes", "setting": "[2]", "result": 1.33}, {"measurement": "Neutrophils", "setting": "[2]", "result": 15.67}, {"measurement": "Organ weights relative to body weight (%), Adrenals", "setting": "[2]", "result": 0.024, "unit": "%"}, {"measurement": "Organ weights relative to body weight (%), Brain", "setting": "[2]", "result": 2.065, "unit": "%"}, {"measurement": "Organ weights relative to body weight (%), Epididy", "setting": "[2]", "result": 0.333, "unit": "%"}, {"measurement": "Organ weights relative to body weight (%), Heart", "setting": "[2]", "result": 0.500, "unit": "%"}, {"measurement": "Organ weights relative to body weight (%), Kidneys", "setting": "[2]", "result": 1.490, "unit": "%"}, {"measurement": "Organ weights relative to body weight (%), Liver", "setting": "[2]", "result": 7.093, "unit": "%"}, {"measurement": "Organ weights relative to body weight (%), Spleen", "setting": "[2]", "result": 0.351, "unit": "%"}, {"measurement": "Organ weights relative to body weight (%), Testes", "setting": "[2]", "result": 0.582, "unit": "%"}, {"measurement": "Organ weights relative to body weight (%), Thy", "setting": "[2]", "result": 0.136, "unit": "%"}, {"measurement": "PLT", "setting": "[2]", "result": "591.33 10^3/μl"}, {"measurement": "RBC", "setting": "[2]", "result": 6.59}, {"measurement": "Reticuloxyte Count", "setting": "[2]", "result": 2.90}, {"measurement": "TBIL", "setting": "[2]", "result": "0.09*↓ mg/dL"}, {"measurement": "TGL", "setting": "[2]", "result": 73.46, "unit": "mg/dL"}, {"measurement": "TP", "setting": "[2]", "result": "4.13*↑ g/dL"}, {"measurement": "Urea", "setting": "[2]", "result": 42.29, "unit": "mg/dL"}, {"measurement": "WBC", "setting": "[2]", "result": "3.70*↓ 10^3/μl"}, {"measurement": "Food consumption, Average Feed Intake/Animal", "setting": "male mice, 25 mg/kg/BID oral, treatment day 1 to 4", "result": 9.9, "unit": "g/animal"}, {"measurement": "Body weight gain (%)", "setting": "male mice, 25 mg/kg/BID oral, treatment day 1 to 4, mean", "result": 3.45, "unit": "%"}, {"measurement": "Food consumption, Average Feed Intake/Animal", "setting": "male mice, 25 mg/kg/BID oral, treatment day 1 to 8", "result": 14.8, "unit": "g/animal"}, {"measurement": "Body weight gain (%)", "setting": "male mice, 25 mg/kg/BID oral, treatment day 1 to 8, mean", "result": 5.68, "unit": "%"}, {"measurement": "Food consumption, Average Feed Intake/Animal", "setting": "male mice, 25 mg/kg/BID oral, treatment day 1 to 11", "result": 9.5, "unit": "g/animal"}, {"measurement": "Body weight gain (%)", "setting": "male mice, 25 mg/kg/BID oral, treatment day 1 to 11, mean", "result": 5.86, "unit": "%"}, {"measurement": "Food consumption, Average Feed Intake/Animal", "setting": "male mice, 25 mg/kg/BID oral, treatment day 1 to 14", "result": 10.4, "unit": "g/animal"}, {"measurement": "Body weight gain (%)", "setting": "male mice, 25 mg/kg/BID oral, treatment day 1 to 14, mean", "result": 7.91, "unit": "%"}, {"measurement": "ALB", "setting": "[3]", "result": 2.43}, {"measurement": "ALP", "setting": "[3]", "result": 180.63}, {"measurement": "ALT", "setting": "[3]", "result": 59.72}, {"measurement": "AST", "setting": "[3]", "result": 88.76}, {"measurement": "BUN", "setting": "[3]", "result": 22.97}, {"measurement": "Basophils", "setting": "[3]", "result": 0.00}, {"measurement": "CREA", "setting": "[3]", "result": "0.12*↓"}, {"measurement": "Eosinophils", "setting": "[3]", "result": 0.00}, {"measurement": "GLU", "setting": "[3]", "result": 152.77, "unit": "mg/dL"}, {"measurement": "HCT", "setting": "[3]", "result": 30.70, "unit": "%"}, {"measurement": "HGB", "setting": "[3]", "result": 13.73, "unit": "g/dL"}, {"measurement": "LDLC", "setting": "[3]", "result": 9.84, "unit": "mg/dL"}, {"measurement": "Lymphocytes", "setting": "[3]", "result": 78.00}, {"measurement": "MCH", "setting": "[3]", "result": 21.70, "unit": "pg"}, {"measurement": "MCHC", "setting": "[3]", "result": 44.77, "unit": "g/dL"}, {"measurement": "MCV", "setting": "[3]", "result": "48.40*↑ fL"}, {"measurement": "Monosytes", "setting": "[3]", "result": 2.00}, {"measurement": "Neutrophils", "setting": "[3]", "result": 20.00}, {"measurement": "Organ weights relative to body weight (%), Adrenals", "setting": "[3]", "result": 0.030, "unit": "%"}, {"measurement": "Organ weights relative to body weight (%), Brain", "setting": "[3]", "result": 2.017, "unit": "%"}, {"measurement": "Organ weights relative to body weight (%), Epididy", "setting": "[3]", "result": 0.298, "unit": "%"}, {"measurement": "Organ weights relative to body weight (%), Heart", "setting": "[3]", "result": 0.541, "unit": "%"}, {"measurement": "Organ weights relative to body weight (%), Kidneys", "setting": "[3]", "result": 1.467, "unit": "%"}, {"measurement": "Organ weights relative to body weight (%), Liver", "setting": "[3]", "result": 7.014, "unit": "%"}, {"measurement": "Organ weights relative to body weight (%), Spleen", "setting": "[3]", "result": 0.461, "unit": "%"}, {"measurement": "Organ weights relative to body weight (%), Testes", "setting": "[3]", "result": 0.773, "unit": "%"}, {"measurement": "Organ weights relative to body weight (%), Thy", "setting": "[3]", "result": 0.116, "unit": "%"}, {"measurement": "PLT", "setting": "[3]", "result": "661.00 10^3/μl"}, {"measurement": "RBC", "setting": "[3]", "result": 6.34}, {"measurement": "Reticuloxyte Count", "setting": "[3]", "result": 2.67}, {"measurement": "TBIL", "setting": "[3]", "result": "0.08*↓ mg/dL"}, {"measurement": "TGL", "setting": "[3]", "result": 84.42, "unit": "mg/dL"}, {"measurement": "TP", "setting": "[3]", "result": "4.19*↑ g/dL"}, {"measurement": "Urea", "setting": "[3]", "result": 47.30, "unit": "mg/dL"}, {"measurement": "WBC", "setting": "[3]", "result": "2.27*↓ 10^3/μl"}, {"measurement": "Food consumption, Average Feed Intake/Animal", "setting": "male mice, 50 mg/kg/BID oral, treatment day 1 to 4", "result": 8.7, "unit": "g/animal"}, {"measurement": "Body weight gain (%)", "setting": "male mice, 50 mg/kg/BID oral, treatment day 1 to 4, mean", "result": "−0.49*1%"}, {"measurement": "Food consumption, Average Feed Intake/Animal", "setting": "male mice, 50 mg/kg/BID oral, treatment day 1 to 8", "result": 14.4, "unit": "g/animal"}, {"measurement": "Body weight gain (%)", "setting": "male mice, 50 mg/kg/BID oral, treatment day 1 to 8, mean", "result": 3.28, "unit": "%"}, {"measurement": "Food consumption, Average Feed Intake/Animal", "setting": "male mice, 50 mg/kg/BID oral, treatment day 1 to 11", "result": 9.4, "unit": "g/animal"}, {"measurement": "Body weight gain (%)", "setting": "male mice, 50 mg/kg/BID oral, treatment day 1 to 11, mean", "result": 3.60, "unit": "%"}, {"measurement": "Food consumption, Average Feed Intake/Animal", "setting": "male mice, 50 mg/kg/BID oral, treatment day 1 to 14", "result": 11.0, "unit": "g/animal"}, {"measurement": "Body weight gain (%)", "setting": "male mice, 50 mg/kg/BID oral, treatment day 1 to 14, mean", "result": 6.21, "unit": "%"}, {"measurement": "body weight and body weight gain", "setting": "[4]", "result": "did not change"}, {"measurement": "clinical signs", "setting": "[4]", "result": "No abnormal clinical signs were detected"}, {"measurement": "survival", "setting": "[4]", "result": "all animals survived to study termination"}, {"measurement": "tolerable dose", "setting": "twice daily for 14 consecutive days, oral, C57BL/6 mice", "result": "> 50", "unit": "mg/kg/BID"}]}
